Experimental data as given in US20070197509A1, “Compositions and methods for modulating gated ion channels” (PainCeptor Pharma Corporation, priority 2005, published 2007).
Entries after “also recorded” stand apart in the source; their conditions may differ. Read-outs that look alike come from different tables or passages of the source.

Columns and labels:
[1] = test system: T1, hASIC3 (h3) and/or hASIC1a (h1a); experiment: FlexStation/FLIPR assay, channel not marked in the cell; format: cell-based, human; conditions: Table H, cells without channel mark; HEK293; read-out: EC50 (μM) Flex/FLIPR
T1 construct: EC50 (μM) in one experiment; HEK293

hASIC1a = molecular target: T2, hASIC1a (Homo sapiens, UniProt P78348); experiment: Whole-cell patch clamp of acid-induced currents in cells transfected with hASIC1a; format: cell-based; set-up: expressed in transfected cells; conditions: for effect on acid-induced hASIC1a inward current (FIGS. 2A, 2B, 3C): whole-cell patch clamp, dose-inhibition curves
T2 sequence (P78348 1-528): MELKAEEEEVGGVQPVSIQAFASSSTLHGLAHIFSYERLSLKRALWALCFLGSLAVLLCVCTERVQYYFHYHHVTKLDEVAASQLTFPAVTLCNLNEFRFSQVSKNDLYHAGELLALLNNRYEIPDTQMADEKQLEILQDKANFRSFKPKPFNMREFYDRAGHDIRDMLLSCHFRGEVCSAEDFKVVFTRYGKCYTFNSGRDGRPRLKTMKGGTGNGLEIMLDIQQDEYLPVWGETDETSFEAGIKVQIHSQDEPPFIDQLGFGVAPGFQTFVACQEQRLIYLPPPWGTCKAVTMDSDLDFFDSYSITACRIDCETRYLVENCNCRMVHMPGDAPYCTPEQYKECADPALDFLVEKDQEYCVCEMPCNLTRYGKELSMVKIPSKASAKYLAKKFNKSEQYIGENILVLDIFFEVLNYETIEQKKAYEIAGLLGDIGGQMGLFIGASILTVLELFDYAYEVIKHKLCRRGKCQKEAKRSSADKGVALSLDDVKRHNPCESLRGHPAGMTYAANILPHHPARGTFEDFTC
Method: Another example of an in vitro assessment method consists of using mammalian heterologous expression systems, which are known to those skilled in the art, and include a variety of mammalian cell lines such as COS, HEK, e.g., HEK293 and/or CHO, cells. Cell lines are transfected with gated ion channel(s) and used to perform electrophysiology as follows:
All experiments are performed at room temperature (20-25° C.) in voltage clamp using conventional whole cell patch clamp methods (Neher, E., et al. (1978) Pfluegers Arch 375:219-228).
The amplifier used is the EPC-9 (HEKA-electronics, Lambrect, Germany) run by a Macintosh G3 computer via an ITC-16 interface. Experimental conditions are set with the Pulse-software accompanying the amplifier. Data is low pass filtered and sampled directly to hard-disk at a rate of 3 times the cut-off frequency.
Pipettes are pulled from borosilicate glass using a horizontal electrode puller (Zeitz-lnstrumente, Augsburg, Germany). The pipette resistances are 2-3 MOhms in the salt solutions used in these experiments. The pipette electrode is a chloridized silver wire, and the reference is a silver chloride pellet electrode (In Vivo Metric, Healdsburg, USA) fixed to the experimental chamber. The electrodes are zeroed with the open pipette in the bath just prior to sealing.
Coverslips with the cells are transferred to a 15 μl experimental chamber mounted on the stage of an inverted microscope (IMT-2, Olympus) supplied with Nomarski optics. Cells are continuously superfused with extracellular saline at a rate of 2.5 ml/min. After giga-seal formation, the whole cell configuration is attained by suction. The cells are held at a holding voltage of −60 mV and at the start of each experiment the current is continuously measured for 45 s to ensure a stable baseline. Solutions of low pH (<7) are delivered to the chamber through a custom-made gravity-driven flowpipe, the tip of which is placed approximately 50 μm from the cell. Application is triggered when the tubing connected to the flowpipe is compressed by a valve controlled by the Pulse-software. Initially, low pH (in general, pH 6.5) is applied for 5 s every 60 s. The sample interval during application is 550 μs. After stable responses are obtained, the extracellular saline as well as the low-pH solution are switched to solutions containing the compound to be tested. The compound is present until responses of repeatable amplitude are achieved. Current amplitudes are measured at the peak of the responses, and effect of the compounds is calculated as the amplitude at compound equilibrium divided by the amplitude of the current evoked by the pulse just before the compound was included.
The following salt solutions are used: extracellular solution (mM): NaCl (140), KCl (4), CaCl2 (2), MgCl2 (4), HEPES (10, pH 7.4); intracellular solution (mM): KCl (120), KOH (31), MgCl2 (1.785), EGTA (10), HEPES (10, pH 7.2). In general, compounds for testing are dissolved in 50% DMSO at 500 fold the highest concentration used.
CHO cells were transfected with hASIC1a and used to perform full dose-inhibition curves with Compound B, and Compound R. Results are expressed as a fraction of the control peak current obtained in the absence of the test substance.

[2] = Table H, read-out: IC50 (μM) Patch Clamp (h1a)

| SMILES | EC50 [1] [µM] | IC50 (hASIC1a; [2]) [µM] | effect on acid-induced hASIC1a inward current (FIGS. 2A, 2B, 3C) (hASIC1a) | IC50 (hASIC1a; patch clamp (PC), Tables A-F, h1a printed in some cells only, read-out: Biological Data (IC50 uM) h1a (PC)) [µM] | selectivity hASIC1a versus hASIC3 (hASIC1a; patch clamp, CHO cells, FIG. 3) | reversibility of the effect on hASIC1a current (hASIC1a; washout of the compound after 1 μM) |
| --- | --- | --- | --- | --- | --- | --- |
| COc1ccc(C(=O)CN2CCN(c3cc(C)nc4ccccc34)CC2)cc1 [Compound A, 1-(4-methoxy-phenyl)-2-[4-(2-methyl-quinolin-4-yl)-piperazin-1-yl]-ethanone] | < 10 | > 10 | – | – | – | – |
| Fc1cccc2c(OC3CCN(Cc4ccccc4)CC3)cc(C(F)(F)F)nc12 [Compound B, 4-(1-benzyl-piperidin-4-yloxy)-8-fluoro-2-trifluoromethyl-quinoline] | – | – | dose-dependently reduce hASIC1a activity; also recorded: dose-dependent reduction | – | – | – |
| Cc1cc(OC2CCN(Cc3ccccc3)CC2)c2ccccc2n1 [Compound R, 4-(1-benzyl-piperidin-4-yloxy)-2-methyl-quinoline] | > 10 | 3.8 | dose-dependently reduce hASIC1a activity; also recorded: reduced the hASIC1a pH-evoked response in a dose-dependent manner; also recorded: dose-dependent reduction | 2 to 10 | selective against specific ASIC subunits; also recorded: selective for hASIC1a over hASIC3 | fully reversed upon washout |
